Data: PMC4496218 (Oncotarget, 2015)
pIC50: −log10 of the molar value.

Columns and labels:
HepG2 cells [1] = assay: MTT cell viability assay; format: cell-based; conditions: Homo sapiens, HepG2, 24 h, read-out: IC50, cell proliferation
Procedure: (§1) Cell viability was determined by detecting the absorbance at 570 nm in a microquant plate reader (Thermo Fisher), triplicate wells were analyzed at each dose.

MHCC-97H cells = assay: MTT cell viability assay; format: cell-based; conditions: Homo sapiens, MHCC97H, 24 h, read-out: IC50, cell proliferation
Procedure: as §1

MHCC-97L cells = assay: MTT cell viability assay; format: cell-based; conditions: Homo sapiens, MHCC97L, 24 h, read-out: IC50, cell proliferation
Procedure: as §1

B16-F10 cells = assay: MTT cell viability assay; format: cell-based, murine; conditions: Mus musculus, B16-F10, 24 h, read-out: IC50, cell proliferation
Procedure: as §1

L02 cells = assay: MTT cell viability assay, normal liver cells; format: cell-based; conditions: L02 normal human liver cells, 24 h
Procedure: as §1

HUVEC cells = assay: MTT cell viability assay, endothelial cells; format: cell-based; conditions: Homo sapiens, 24 h
Procedure: as §1

[2] = tested on: nine cancer cell lines (MHCC-97H, MHCC-97L, HepG2, M619, MDA-MB-231, MCF-7, HT29, SW620, B16-F10); assay: MTT cell viability assay, span over nine cancer cell lines; format: cell-based; conditions: 24 h, read-out: IC50 to suppress cell proliferation, span over nine cancer cell lines
Procedure: as §1

HepG2 cells [3] = assay: Transwell matrigel invasion assay; format: cell-based, human; conditions: HepG2, 5 μM, 24 h; control 88 ± 5
Procedure: An invasion assay was carried out using 24-well plate. The […] pore-sized transwell inserts were coated with matrigel at 1 mg/mL on the upper chamber. The lower chamber was filled with medium containing 20% FBS as chemoattractant agents. The coated filter and upper chamber were laid over the lower chamber. […] After incubation for 24 h at 37°C, cells were fixed in methanol for 20 min. The cells on the inner layer were softly removed with a cotton swab, and the adherent cells on undersurface of the insert were stained with 0.1% crystal violet dye for 15 min. The filters were washed with PBS and images were taken. The invading cells were counted and photographed under a light microscope (Zeiss, Germany) at × 200 magnification. Five fields were counted per filter in each group and the experiment was conducted in triplicate.

HepG2 cells [4] = assay: Wound healing migration assay; format: cell-based, human; conditions: HepG2, 24 h after wounding; UA 5 μM, US597 0.2, 1, 5 μM
Procedure: SW620, B16-F10 and HepG2 cells (5 × 10^5 cells per well) were plated in 6-well plates for 24 h, a perpendicular scratch wound was generated by scratching with a 10 μL pipette tip. […] Cells were photographed using a light microscope (Zeiss, Germany) at 0 and 24 h after the drug treatment. The distance that cells migrated through the scribed area was determined by measuring the wound width at 24 h after treatment, and subtracting it from the wound width at 0 h. Experiments were repeated at least three times.

ICAM-1 [5] = assay: qRT-PCR of mRNA in IL-1β-stimulated HUVECs; format: cell-based, human; conditions: IL-1β 1 ng/mL 4 h, then 24 h, UA 5 μM, US597 0.2, 1, 5 μM
VCAM-1 [6] = assay: qRT-PCR of mRNA in IL-1β-stimulated HUVECs; format: cell-based, human; conditions: IL-1β 1 ng/mL 4 h, then 24 h, 5 μM
ICAM-1 [7] = assay: Flow cytometry of surface expression on IL-1β-stimulated HUVECs; format: cell-based, human; conditions: 5 μM, 24 h
Procedure: (§2) Cells expression of ICAM-1, VCAM-1, E-selectin, integrin α4, α5, α6 and β1 were performed via flow cytometry. […] After incubation, the cells were washed twice with PBS and collected for staining. The cells and primary antibodies were incubated at 4°C for 20 min in the dark. After washing with staining buffer, cell adhesion molecule (ICAM-1, VCAM-1 and E-selectin) and integrins (integrin α6 and β1) expression on cell-surface were measured by BD FACSAriaIII flow cytometry. The data were processed by FlowJo software and expressed as the mean fluorescent intensities.

VCAM-1 [8] = assay: as above; format: cell-based, human; conditions: 5 μM, 24 h
Procedure: as §2

[9] = tested on: integrin α6, integrin β1, FAK, Src, paxillin and PTEN; assay: Western blot of focal adhesion signaling proteins in HepG2 cells; format: cell-based, human; conditions: 24 h, UA 5 μM, US597 0.2, 1, 5 μM
Procedure: Cell dishes were washed with cold phosphate-buffered saline and treated with lysis buffer for several seconds at an ice-cold bath, and then cell lysates were clarified by centrifugation at 12,000 g for 5 min under 4°C and the supernatants were recovered. The concentrations of proteins were determined by the BCA method. Samples with equivalent amounts of proteins were resolved by SDS-PAGE using a 10% gel. Proteins were transferred to a polyvinyldene difluoride (PVDF) membrane. The membranes were washed for ten minutes with TBS (20 mM Tris, 160 mM NaCl) and were blocked by blocking solution (10 mM Tris-HCl (pH 7.4), 125 mM NaCl, 0.1% Tween 20, and 5% skim milk). The blots were washed three times with TBST(20 mM Tris, 160 mM NaCl, 0.1% Tween 20), and they were incubated with specific primary antibodies diluted 1:1000 in TBST solution overnight at 4°C. Subsequently, the blots were washed three times with TBST (20 mM Tris, 160 mM NaCl, 0.1% Tween 20), and then the blots were incubated with secondary antibody (horseradish peroxidase conjugated goat anti-rabbit-IgG) diluted 1:5000 in TBST solution for 2 h at 37°C. […] Chemiluminescent signals were generated using a Super Signal West Pico Chemiluminescent Substrate kit (Pierce), and detected by using the ChemiDoc XRS system (Bio-Rad). The target proteins expression was quantified by use of Image Lab analysis software (Bio-Rad).

[10] = tested on: B16-F10 melanoma lung metastasis; assay: B16-F10/C57BL/6 mouse melanoma lung metastasis model; format: in vivo, C57BL/6 mice; conditions: 80 mg/kg/day oral, 28 days
Procedure: (§3) To establish the lung metastasis model, B16-F10 cells were harvested, washed with serum-free RPMI 1640 and resuspended to give the appropriate concentrations in PBS, and injected into the tail vein of C57BL/6 mice at a density of 5 × 10^4/200 μL. […] Mice weight was measured every four days for 7 times. Mice were sacrificed (n = 6) at the 28st days after tumor inoculation. The heart, liver, spleen, lung, kidney and small intestine were excised, washed with PBS, and fixed in 10% neutral buffered formalin, and these tissues were then paraffin embeddedand stained with hematoxylin and eosin (H&E). The number of surface tumor nodules was determined by visual inspection using a magnifying glass, and histological observations were performed under a microscope (Zeiss, Germany).

[11] = Toxicity in tumor metastatic mice (body weight, histopathology, blood analysis); format: in vivo, C57BL/6 mice; conditions: 28 days
Procedure: as §3

ICAM-1 [12] = assay: ICAM-1 immunohistochemistry of lung tissue; format: in vivo, C57BL/6 mice; conditions: UA group and high dose US597 group, P < 0.01
Procedure: Frozen sections (6 μm) were stained with anti-ICAM-1 antibody as previously described. ICAM-1 expression in lung tissue was performed with avidin-biotin complex (ABC) method. Results for ICAM-1 positive cells are shown as × 200 magnification.

## C[C@H]1[C@H](C)CC[C@]2(C(=O)O)CC[C@]3(C)C(=CC[C@@H]4[C@@]5(C)CC[C@H](O)C(C)(C)[C@@H]5CC[C@]43C)[C@H]12 [UA, 3β-hydroxy-urs-12-en-28-oic acid]
HepG2 cells [1]
  pIC50: 4.48
MHCC-97H cells
  pIC50: 4.44
MHCC-97L cells
  pIC50: 4.49
B16-F10 cells
  pIC50: 4.50
L02 cells
  pIC50: 4.38
HUVEC cells
  pIC50: 4.29
[2]
  pIC50: 4.22 to 4.50
HepG2 cells [3]
  average number of invaded cells: 75 ± 3
HepG2 cells [4]
  cell migration in wound healing assay: showed less migration in wound area
ICAM-1 [5]
  ICAM-1 mRNA expression: inhibited the induction
VCAM-1 [6]
  VCAM-1 mRNA expression: almost no change
ICAM-1 [7]
  ICAM-1 expression, % of control: no significant effect
VCAM-1 [8]
  VCAM-1 expression, % of control: no significant effect
[9]
  protein expression of integrin α6, integrin β1, FAK, Src, paxillin and PTEN: the effect was prominent
[10]
  inhibitory rate, number of lung metastatic nodules: 14.45%
[11]; 80 mg/Kg, normal range 0.9 – 9.3, control 6.82 ± 2.17
  LYMPH: 3.65 ± 1.48 × 10^9/L
[11]; 80 mg/Kg, normal range 1.8 – 10.7, control 9.31 ± 1.28
  WBC: 7.14 ± 0.33 × 10^9/L
[11]; 80 mg/Kg, normal range 6.36 – 9.42, control 9.04 ± 0.27
  RBC: 8.84 ± 2.31 × 10^12/L
[11]; 80 mg/Kg, normal range 110.0 – 151.0, control 136.42 ± 1.15
  HGB: 131.56 ± 0.89 g/L
[11]; 80 mg/Kg, normal range 592 – 2972, control 1583 ± 126
  PLT: 1461 ± 251 × 10^9/L
[11]; 80 mg/kg daily oral
  animal body loss: did not induce significant animal body loss
[11]; 80 mg/kg daily oral, H&E
  histopathology of heart, liver, spleen, kidney and small intestine: no remarkable histopathological abnormalities or lesions
ICAM-1 [12]
  ICAM-1 expression in lung tissue vs control: significantly decreased
